Measured values reported in patent US9227957B2, “Pesticidal pyrimidine compounds” (Dow AgroSciences, LLC, priority 2012, dated 2016).

Assays:
Conditions in all cases: 120 h, read-out: percent control or mortality rate
[1] = tested on: corn earworm (Helicoverpa zea); experiment: 128 well diet tray insecticidal bioassay, corn earworm
[2] = tested on: beet armyworm (Spodoptera exigua); experiment: 128 well diet tray insecticidal bioassay, beet armyworm
[3] = tested on: cabbage looper (Trichoplusia ni (Huebner)); experiment: 128 well diet tray insecticidal bioassay, cabbage looper

SMILES	mortality at 50 µg/cm2 [1]	mortality at 50 µg/cm2 [2]	mortality at 50 µg/cm2 [3]
CC(=O)OCN(C(=O)Nc1ccc(C(F)(F)F)s1)c1nc(OCC(F)(F)F)cc(OCC(F)(F)F)n1 [Compound 5]	80 to 100%	80 to 100%	–
O=C(Nc1nc(OCC(F)(F)F)cc(OCC(F)(F)F)n1)Nc1sccc1Cl [Compound 32]	–	80 to 100%	–
O=C(Nc1nc(OCC(F)(F)F)c(F)c(OCC(F)(F)F)n1)Nc1ccc(C(F)(F)F)s1 [Compound 12]	80 to 100%	80 to 100%	–
CC(=O)OCN(C(=O)N(C)c1ccc(C(F)(F)F)s1)c1nc(OCC(F)(F)F)cc(OCC(F)(F)F)n1 [Compound 8]	80 to 100%	80 to 100%	–
COc1ccsc1N(C)C(=O)Nc1nc(OCC(F)(F)F)cc(OCC(F)(F)F)n1 [Compound 36]	–	–	< 80%
COc1c(Cl)csc1N(C)C(=O)Nc1nc(OCC(F)(F)F)cc(OCC(F)(F)F)n1 [Compound 35]	–	–	< 80%
O=C(Nc1nc(OCC(F)(F)F)cc(OCC(F)(F)F)n1)Nc1sc(Cl)c(Cl)c1Cl [Compound 44]	–	80 to 100%	80 to 100%
CN(C(=O)Nc1nc(OCC(F)(F)F)cc(OCC(F)(F)F)n1)c1cc(-c2ccc(Cl)cc2)cs1 [Compound 26]	–	80 to 100%	80 to 100%
O=C(Nc1nc(OCC(F)(F)F)cc(OCC(F)(F)F)n1)Nc1sccc1Br [Compound 45]	–	< 80%	–
COCN(C(=O)N(C)c1ccc(C(F)(F)F)s1)c1nc(OCC(F)(F)F)cc(OCC(F)(F)F)n1 [Compound 7]	80 to 100%	80 to 100%	–
CN(C(=O)Nc1nc(OCC(F)(F)F)cc(OCC(F)(F)F)n1)c1cc(C#N)cs1 [Compound 38]	–	–	80 to 100%
COCN(C(=O)Nc1ccc(C(F)(F)F)s1)c1nc(OCC(F)(F)F)c(F)c(OCC(F)(F)F)n1 [Compound 15]	–	80 to 100%	–
Cc1ccsc1N(C)C(=O)Nc1nc(OCC(F)(F)F)cc(OCC(F)(F)F)n1 [Compound 31]	–	–	< 80%
CN(C(=O)Nc1nc(OCC(F)(F)F)cc(OCC(F)(F)F)n1)c1sccc1Cl [Compound 28]	–	< 80%	–
CN(C(=O)Nc1nc(OCC(F)(F)F)c(F)c(OCC(F)(F)F)n1)c1ccc(C(F)(F)F)s1 [Compound 13]	80 to 100%	80 to 100%	–
CN(C(=O)Nc1nc(OCC(F)(F)F)cc(OCC(F)(F)F)n1)c1ccc(C(F)(F)F)s1 [Compound 2, 3-(4,6-bis(2,2,2-trifluoroethoxy)pyrimidin-2-yl)-1-methyl-1-(5-(trifluoromethyl)thiophen-2-yl)urea]	80 to 100%	80 to 100%	–
Cc1ccc(N(C)C(=O)Nc2nc(OCC(F)(F)F)cc(OCC(F)(F)F)n2)s1 [Compound 39]	–	–	80 to 100%
COCN(C(=O)Nc1ccc(C(F)(F)F)s1)c1nc(OCC(F)(F)F)cc(OCC(F)(F)F)n1 [Compound 4, 3-(methoxymethyl)-3-(4,6-bis(2,2,2-trifluoroethoxy)pyrimidin-2-yl)-1-(5-(trifluoromethyl)thiophen-2-yl)urea]	80 to 100%	80 to 100%	–
Cc1csc(N(C)C(=O)Nc2nc(OCC(F)(F)F)cc(OCC(F)(F)F)n2)c1 [Compound 34]	–	–	80 to 100%
O=C(Nc1nc(OCC(F)(F)F)cc(OCC(F)(F)F)n1)Nc1ccc(C(F)(F)F)s1 [Compound 1, 3-(4,6-bis(2,2,2-trifluoroethoxy)pyrimidin-2-yl)-1-(5-(trifluoromethyl)thiophen-2-yl)urea]	80 to 100%	< 80%	–
Cc1ccsc1NC(=O)Nc1nc(OCC(F)(F)F)cc(OCC(F)(F)F)n1 [Compound 37]	–	80 to 100%	< 80%
COCN(C(=O)N(COCc1ccccc1)c1nc(OCC(F)(F)F)cc(OCC(F)(F)F)n1)c1ccc(C(F)(F)F)s1 [Compound 10, 3-(benzyloxymethyl)-3-(4,6-bis(2,2,2-trifluoroethoxy)pyrimidin-2-yl)-1-(methoxymethyl)-1-(5-(trifluoromethyl)thiophen-2-yl)urea]	80 to 100%	80 to 100%	–
CN(C(=O)N(COCc1ccccc1)c1nc(OCC(F)(F)F)cc(OCC(F)(F)F)n1)c1ccc(C(F)(F)F)s1 [Compound 9]	80 to 100%	80 to 100%	–
CC(=O)OCN(C(=O)N(C)c1ccc(C(F)(F)F)s1)c1nc(OCC(F)(F)F)c(F)c(OCC(F)(F)F)n1 [Compound 19]	80 to 100%	80 to 100%	–
COc1c(Cl)csc1NC(=O)Nc1nc(OCC(F)(F)F)cc(OCC(F)(F)F)n1 [Compound 25]	–	80 to 100%	80 to 100%
